What all share (experiment): NCI tumour cell line growth inhibition, 48 h
Assay [1] relates to TK-10 renal.
For assay [2], the system named is SW-620 colon.
The test system of assay [3] is SR leukemia.
The subject of assay [4] is SNB-75 CNS.
Assay [5] deals with A549 NSCLC.
In assay [6] the test system is MALME-3M melanoma.
Assay [7] concerns NCI-H522 lung.
Assay [8] concerns NCI-H23 lung.

Several values for one entry are separate records, joined by “and”; a condition that tells them apart may be missing. Equal values may be shown once.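 How tested: cells in 96-well plates exposed to compound for 48 hours at five concentrations. GI50: concentration for 50% inhibition of growth. TGI marks complete inhibition of growth.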

In the case of `FC(F)(F)c1ccc(-c2nn3ncccc3c2-c2ccnc(Nc3ccc4c(c3)OCCO4)n2)cc1`, the GI50 is 10100 nM in assay [1]; more than 25000 nM in assay [2]; more than 25000 nM in assay [3]; more than 8490 nM in assay [4]; 21400 nM in assay [5]; 7290 nM in assay [6]. Further, the results for the GI50 in assay [7] and in assay [8] were 8790 nM and 14700 nM, respectively. In addition, the TGI in assay [1], in assay [2], in assay [3], in assay [4], in assay [5] and in assay [6] was more than 25000 nM in each case. Moreover, the TGI in assay [7] and in assay [8] was more than 25000 nM in each case.
Consider `CSc1ncnc2c1ncn2CC(=O)C1CCC2C3CCC4=CC(=O)CCC4(C)C3CCC12C` (centres undefined), for which the TGI in assay [1] was 30100 nM; in assay [2] it was more than 100000 nM; in assay [3] it was 5560 nM; in assay [4], 27900 nM; in assay [5] it was more than 64700 nM; in assay [6], 31700 nM. Besides, the TGI in assay [7] came to 24500 nM; in assay [8], 35200 nM.
Turning to `C=CC(C)(C)n1cc(C2=C(O)C(=O)C(c3cn(C(C)(C)C=C)c4ccccc34)=C(O)C2=O)c2ccccc21`, the TGI in assay [1] was 10900 nM; in assay [2], 53800 nM; in assay [3] it was more than 45000 nM; in assay [4], 7770 nM; in assay [5], 14600 nM; in assay [6], 11100 nM. In addition, the results for the TGI in assay [7] and in assay [8] were 13000 nM and 7830 nM, respectively.
As for `CCCCCCNCCCNc1c2cc(OC)ccc2nc2cccc([N+](=O)[O-])c12`, the GI50 in assay [1] was 322 nM; in assay [2], 132 nM; in assay [3], 121 nM; in assay [4], 183 nM; in assay [5] it was 213 nM; in assay [6], 179 nM. For the same compound, the GI50 in assay [7] was 17.4 nM; in assay [8] it was 165 nM. For the same compound, the TGI was 387 nM and 875 nM in assay [1]; 4190 nM and 1300 nM in assay [2]; 865 nM and 420 nM in assay [4]; 393 nM and 1080 nM in assay [5]; 199 nM and 422 nM in assay [6]; 104 nM and 51.6 nM in assay [7]. Further, the TGI in assay [8] is 296 nM and 351 nM.
Consider `Cc1cc(CCl)c(C)cc1CCl`, for which the GI50 in assay [1] is 1970 nM; in assay [2] it was 1340 nM; in assay [3], 114 nM; in assay [4] it was 1380 nM; in assay [5], 1660 nM; in assay [6], 1960 nM. Also, the GI50 in assay [7] is 1700 nM; in assay [8], 3770 nM. The TGI in assay [1] is 5050 nM; in assay [2], 5740 nM; in assay [3], 8830 nM; in assay [4] it was 4150 nM; in assay [5], 5090 nM; in assay [6] it was 5460 nM. Further, the TGI in assay [7] is 3570 nM; in assay [8] it was 18500 nM.
With `CCCCCCCCCc1ccc(OCCOCCOCCOCCOCCOCCOCCOCCOCCO)cc1`, the GI50 in assay [1] is 745 nM; in assay [2], 1190 nM; in assay [3] it was 437 nM; in assay [4] it was 881 nM; in assay [5] it was 414 nM; in assay [6], 646 nM. Also, the results for the GI50 in assay [7] and in assay [8] were 302 nM and 257 nM, respectively. The TGI came to 1930 nM in assay [1]; 5550 nM in assay [2]; 1910 nM in assay [3]; 2480 nM in assay [4]; 3690 nM in assay [5]; 1630 nM in assay [6]. Also, the values for the TGI in assay [7] and in assay [8] were 1390 nM and 3260 nM, respectively.
Consider `COc1ccc(C(=O)c2sc3nc(-c4ccccc4OC)ccc3c2N)cc1OC`, for which the GI50 in assay [1] is 4870 nM; in assay [2] it was more than 100000 nM; in assay [3], 7300 nM; in assay [4] it was 4340 nM; in assay [5], 5850 nM; in assay [6], 3650 nM. In addition, the GI50 is 2500 nM in assay [7] and 50100 nM in assay [8]. Moreover, the TGI in assay [1] was 33400 nM; in assay [2], more than 100000 nM; in assay [3], more than 100000 nM; in assay [4] it was 23400 nM; in assay [5], more than 100000 nM; in assay [6] it was more than 100000 nM. For the same compound, the TGI in assay [7] is 8890 nM; in assay [8] it was more than 100000 nM.
Consider `COc1ccc(Nc2nc(Nc3cc(C)[nH]n3)c3cc(OC)c(OC)cc3n2)cc1`, for which the GI50 in assay [2] was 314 nM; in assay [3] it was 386 nM; in assay [4] it was 1660 nM; in assay [6], 1650 nM; in assay [7] it was 1440 nM; in assay [8], 1160 nM. Further, the TGI in assay [2] is 1020 nM; in assay [3] it was more than 100000 nM; in assay [4], 3150 nM; in assay [6] it was 3190 nM; in assay [7], 4480 nM; in assay [8], 2820 nM.
As to `CC(C)(C)[Si](C)(C)OC1[C@@H](CNC(N)=O)O[C@@H](n2cnc3c(NC(=O)Nc4ccccc4)ncnc32)[C@H]1O[Si](C)(C)C(C)(C)C` (some centres undefined), the GI50 in assay [2] was 981 nM; in assay [3], 977 nM; in assay [4], 3730 nM; in assay [5], 1980 nM; in assay [6], 5190 nM; in assay [7], 2360 nM. Also, the GI50 in assay [8] is 1900 nM. For the same compound, the TGI was 1870 nM in assay [2]; 1990 nM in assay [3]; 10900 nM in assay [4]; 7820 nM in assay [5]; 12500 nM in assay [6]; 8250 nM in assay [7]. In assay [8], this compound yielded a TGI of 7830 nM.
On to `COc1cc(C2=NN(C(C)=O)C(c3cc(OC)c(OC)c(OC)c3)C2)ccc1O` (centres undefined), for which the GI50 was 723 nM in assay [1]; 296 nM in assay [2]; 98.5 nM in assay [3]; 260 nM in assay [4]; 579 nM in assay [5]; 273 nM in assay [7]. In addition, in assay [8], the GI50 is 510 nM. The TGI in assay [1] was more than 100000 nM; in assay [2] it was more than 100000 nM; in assay [4] it was more than 100000 nM; in assay [5], more than 100000 nM; in assay [7], more than 35400 nM; in assay [8] it was more than 100000 nM.

Source of the values: PubChem BioAssay (NCI).
